# Activity calls are given as the source filed them.
# Columns and labels:
# [1] = alpha-synuclein stem-loop luciferase translation blockers – H4 neuroglioma cells, luminescence, confirmation (AID 1988); assay type: functional, cell-based
# HEK293 [2] = assay: inhibition of NOD1-driven NF-kB reporter – cell-based, luminescence, uHTS, primary screen (AID 1578); assay type: functional; conditions: Homo sapiens
# [3] = target: ATP-binding cassette sub-family B member 6 (Homo sapiens, UniProt Q9NP58); assay: concentration-dependent ABCB6 porphyrin transport blockade – K562-ABCB6 cells, flow cytometry, cherry pick 1, dose response (AID 623955); assay type: functional; conditions: read-out: EC50_MICROM
# Protein RecA = target: T1, Protein RecA (Mycobacterium tuberculosis, UniProt P9WHJ3); assay: Fluorescence Cell-Free Homogeneous Dose Retest to Identify Inhibitors of RecA-Intein Splicing Activity. [Related pubchem assays (depositor defined):AID2097, AID2223, AID489010, AID492950]; assay type: functional
# T1 sequence (P9WHJ3 whole entry): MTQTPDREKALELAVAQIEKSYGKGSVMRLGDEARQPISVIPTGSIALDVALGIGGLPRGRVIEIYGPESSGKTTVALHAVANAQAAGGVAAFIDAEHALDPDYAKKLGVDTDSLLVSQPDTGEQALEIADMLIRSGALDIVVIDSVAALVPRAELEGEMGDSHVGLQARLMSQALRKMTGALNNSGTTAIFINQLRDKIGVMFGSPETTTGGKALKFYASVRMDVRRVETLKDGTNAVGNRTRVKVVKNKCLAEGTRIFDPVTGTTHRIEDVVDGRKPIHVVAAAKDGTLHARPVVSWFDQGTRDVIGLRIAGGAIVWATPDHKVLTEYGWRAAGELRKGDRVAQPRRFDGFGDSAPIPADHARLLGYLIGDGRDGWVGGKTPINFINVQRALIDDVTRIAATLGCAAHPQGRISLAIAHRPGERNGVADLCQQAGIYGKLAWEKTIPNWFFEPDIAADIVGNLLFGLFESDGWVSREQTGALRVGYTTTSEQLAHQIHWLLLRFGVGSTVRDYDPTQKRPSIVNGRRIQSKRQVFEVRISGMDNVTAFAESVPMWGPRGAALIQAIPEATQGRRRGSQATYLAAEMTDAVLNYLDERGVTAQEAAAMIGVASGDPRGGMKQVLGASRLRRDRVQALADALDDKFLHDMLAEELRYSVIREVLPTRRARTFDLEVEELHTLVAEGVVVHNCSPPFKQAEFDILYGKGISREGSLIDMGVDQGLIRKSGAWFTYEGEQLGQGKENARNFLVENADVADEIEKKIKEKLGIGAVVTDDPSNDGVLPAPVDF
# Paired box protein Pax-8 = Paired box protein Pax-8 (Homo sapiens, UniProt Q06710); assay: PAX8 transcriptional activity inhibition in RMG-I – RMG-I cells, luciferase, cherry-pick, dose response (AID 687027); assay type: functional, cell-based;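 note: luciferase reporter driven by Pax8 target thyroperoxidase promoter measured by SteadyGlo luminescence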
# [4] = COV362 cell viability loss – plate reader, dry powder, SA12, cytotoxicity control for PAX8 inhibitor project, dose response (AID 743144); assay type: functional, cell-based
# [5] = PAX5 cellular inhibition readout – cell-based, plate reader, dry powder samples, selectivity assay for PAX8 inhibitor project, dose response (AID 743047); assay type: functional;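 note: HEK293 cells carrying a Pax5 driven CD19 promoter luciferase reporter; potency of inhibitors that lower reporter luminescence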
# Escherichia coli = assay: microbe, parasite or virus in culture
# [6] = luciferase reporter signal suppression in cells – H4 neuroglioma cells, luminescence, dose response (AID 1990); assay type: functional, cell-based
# HEK293 [7] = assay: cells; assay type: functional, cell-based; conditions: Homo sapiens
# HEK293 [8] = assay: cells; assay type: functional, cell-based; conditions: Homo sapiens; remark: listed apart in the source
# [9] = target: Nucleotide-binding oligomerization domain-containing protein 2 (Homo sapiens, UniProt Q9HC29); assay: inhibition of NOD2-driven NF-kB reporter – cell-based, luminescence, uHTS, HEK293 (AID 1566); assay type: functional
# [10] = A2780 cell killing – plate reader, dry powder samples, cytotoxicity control, dose response (AID 743046); assay type: functional, cell-based
# Fatty acid synthase [11] = target: T2, Fatty acid synthase (Homo sapiens, UniProt P49327); assay: inhibition of human FAS-TE enzyme activity – biochemical, kinetic fluorescence intensity, dose response (AID 624326); assay type: functional;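 note: rate of fluorescence rise from hydrolysis of a fluorogenic O-methyl fluorescein ester substrate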
# [12] = inhibitors acting on PAX2 in cells – cell-based, plate reader, dry powder samples, selectivity assay for PAX8 inhibitor project, dose response (AID 743048); assay type: functional;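 note: HEK293 cells carrying a WT1 promoter luciferase reporter driven by expressed Pax2; potency is for inhibition of Pax2 driven reporter signal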
# [13] = OV-90 cell viability loss – plate reader, dry powder, SA8, PAX8 inhibitor project, dose response (AID 743149); assay type: functional, cell-based
# HEK293 [14] = assay: NOD2 signaling inhibitors in MDP-stimulated cells, cell-based, uHTS, luminescence (AID 2001); assay type: functional; conditions: Homo sapiens
# [15] = target: Heat shock protein HSP 90-alpha (Homo sapiens, UniProt P07900); assay type: functional, organism-based
# [16] = OVCAR4 cell viability loss – plate reader, dry powder, SA11, cytotoxicity control for PAX8 inhibitor project, dose response (AID 743150); assay type: functional, cell-based; conditions: OVCAR-4
# [17] = non-specific 3'UTR reporter inhibition in Clone20-Shn3RL – cell-based, Renilla luciferase, cherry-picked, counter-screen for Shn3 inhibitor project, dose response (AID 624133); assay type: functional
# [18] = Luminescence Cell-Based Dose Response HTS to Identify Inhibitors of 5'UTR Stem-Loop Driven Prion Protein mRNA Translation in H4 Neuroglioblastoma Cells. [Related pubchem assays: 1827 (Project Summary), 1813 (Primary HTS)]; assay type: functional
# [19] = target: T3, Replicative DNA helicase DnaB (Mycobacterium tuberculosis, UniProt P9WMR3); assay: DnaB intein splicing inhibitors, dose response, biochemical, cell-free fluorescence (AID 449749); assay type: functional
# T3 sequence (P9WMR3 whole entry): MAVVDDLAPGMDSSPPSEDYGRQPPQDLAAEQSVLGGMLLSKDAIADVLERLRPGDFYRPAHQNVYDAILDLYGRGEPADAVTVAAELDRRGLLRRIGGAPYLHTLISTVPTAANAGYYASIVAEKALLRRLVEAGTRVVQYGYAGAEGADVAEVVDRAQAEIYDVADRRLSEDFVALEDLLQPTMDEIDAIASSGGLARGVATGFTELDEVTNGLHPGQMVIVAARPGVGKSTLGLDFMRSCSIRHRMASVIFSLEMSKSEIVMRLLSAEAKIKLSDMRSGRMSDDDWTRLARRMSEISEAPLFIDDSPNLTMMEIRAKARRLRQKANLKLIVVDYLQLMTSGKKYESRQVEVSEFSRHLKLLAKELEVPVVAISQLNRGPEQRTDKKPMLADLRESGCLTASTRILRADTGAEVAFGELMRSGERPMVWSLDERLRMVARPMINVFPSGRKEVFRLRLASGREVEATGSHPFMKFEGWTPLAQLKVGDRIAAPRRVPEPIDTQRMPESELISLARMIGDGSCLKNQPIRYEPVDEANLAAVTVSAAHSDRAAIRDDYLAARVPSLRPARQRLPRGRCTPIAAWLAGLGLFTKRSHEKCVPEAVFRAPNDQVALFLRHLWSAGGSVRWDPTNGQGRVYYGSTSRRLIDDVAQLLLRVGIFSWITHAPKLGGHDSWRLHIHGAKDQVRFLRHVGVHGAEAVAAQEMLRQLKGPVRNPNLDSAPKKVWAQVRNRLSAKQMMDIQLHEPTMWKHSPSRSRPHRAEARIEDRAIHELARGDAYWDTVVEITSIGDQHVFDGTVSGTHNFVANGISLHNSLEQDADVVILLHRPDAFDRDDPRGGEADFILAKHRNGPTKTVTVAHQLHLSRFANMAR
# [20] = toxicity toward immortalized ovarian surface epithelium – cell-based, plate reader, dry powder samples, cytotoxicity control for PAX8 inhibitor project, dose response (AID 743045); assay type: functional
# Fatty acid synthase [21] = target: T2, Fatty acid synthase; assay: inhibition of human FAS-TE enzyme activity – biochemical, endpoint fluorescence intensity, uHTS hits, dose response (AID 624327); assay type: functional;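 note: fluorescence from hydrolysis of an O-methyl fluorescein acyl ester substrate by the enzyme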
# [22] = COV434 cell viability loss – plate reader, dry powder, SA7, cytotoxicity control for PAX8 inhibitor project, dose response (AID 743145); assay type: functional, cell-based
# [23] = reduction of Shn3 3'UTR-driven luciferase in osteoblasts – cell-based, Clone20 osteoblasts, firefly luciferase, cherry-picked, dose response (AID 624132); assay type: functional;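 note: firefly luciferase luminescence from reporter carrying the Shn3 3'UTR in osteoblasts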
# CHO = CHO cell viability loss, potency – luminescence, cytotoxicity control for TLR9-MyD88 binding inhibitor project, dose response (AID 588339); assay type: functional, cell-based, hamster; conditions: Cricetulus griseus;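 note: CHO cells stably coexpressing TLR9 and MyD88 fusions from primary screen; compound exposure lasted 48 hours before viability readout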
# Beta Lactamase = Beta Lactamase (Pseudomonas aeruginosa, UniProt Q932Y6); assay: BLA reporter interference, concentration series – BLA reporter cells, FRET fluorescence, artefact control for TLR9-MyD88 binding inhibitor project, dose response (AID 588341); assay type: cell-based;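 note: cell based assay in CHO-K1 cells stably expressing beta-lactamase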
# [24] = OVCAR-3 cell viability loss – plate reader, dry powder samples, PAX8 inhibitor project, dose response (AID 743044); assay type: functional, cell-based
# [25] = IGROV1 cell killing – plate reader, dry powder samples, PAX8 inhibitor project, dose response (AID 743043); assay type: functional, cell-based; conditions: IGROV-1
# [26] = loss of viability in HepG2 cells – cell-based, CellTiter-Glo, cherry-picked, cytotoxicity control for Shn3 inhibitor project, dose response (AID 624134); assay type: functional
# [27] = PAX8-dependent cell viability loss – plate reader, dry powder, dose response (AID 743049); assay type: functional, cell-based
# T2 sequence (P49327 whole entry): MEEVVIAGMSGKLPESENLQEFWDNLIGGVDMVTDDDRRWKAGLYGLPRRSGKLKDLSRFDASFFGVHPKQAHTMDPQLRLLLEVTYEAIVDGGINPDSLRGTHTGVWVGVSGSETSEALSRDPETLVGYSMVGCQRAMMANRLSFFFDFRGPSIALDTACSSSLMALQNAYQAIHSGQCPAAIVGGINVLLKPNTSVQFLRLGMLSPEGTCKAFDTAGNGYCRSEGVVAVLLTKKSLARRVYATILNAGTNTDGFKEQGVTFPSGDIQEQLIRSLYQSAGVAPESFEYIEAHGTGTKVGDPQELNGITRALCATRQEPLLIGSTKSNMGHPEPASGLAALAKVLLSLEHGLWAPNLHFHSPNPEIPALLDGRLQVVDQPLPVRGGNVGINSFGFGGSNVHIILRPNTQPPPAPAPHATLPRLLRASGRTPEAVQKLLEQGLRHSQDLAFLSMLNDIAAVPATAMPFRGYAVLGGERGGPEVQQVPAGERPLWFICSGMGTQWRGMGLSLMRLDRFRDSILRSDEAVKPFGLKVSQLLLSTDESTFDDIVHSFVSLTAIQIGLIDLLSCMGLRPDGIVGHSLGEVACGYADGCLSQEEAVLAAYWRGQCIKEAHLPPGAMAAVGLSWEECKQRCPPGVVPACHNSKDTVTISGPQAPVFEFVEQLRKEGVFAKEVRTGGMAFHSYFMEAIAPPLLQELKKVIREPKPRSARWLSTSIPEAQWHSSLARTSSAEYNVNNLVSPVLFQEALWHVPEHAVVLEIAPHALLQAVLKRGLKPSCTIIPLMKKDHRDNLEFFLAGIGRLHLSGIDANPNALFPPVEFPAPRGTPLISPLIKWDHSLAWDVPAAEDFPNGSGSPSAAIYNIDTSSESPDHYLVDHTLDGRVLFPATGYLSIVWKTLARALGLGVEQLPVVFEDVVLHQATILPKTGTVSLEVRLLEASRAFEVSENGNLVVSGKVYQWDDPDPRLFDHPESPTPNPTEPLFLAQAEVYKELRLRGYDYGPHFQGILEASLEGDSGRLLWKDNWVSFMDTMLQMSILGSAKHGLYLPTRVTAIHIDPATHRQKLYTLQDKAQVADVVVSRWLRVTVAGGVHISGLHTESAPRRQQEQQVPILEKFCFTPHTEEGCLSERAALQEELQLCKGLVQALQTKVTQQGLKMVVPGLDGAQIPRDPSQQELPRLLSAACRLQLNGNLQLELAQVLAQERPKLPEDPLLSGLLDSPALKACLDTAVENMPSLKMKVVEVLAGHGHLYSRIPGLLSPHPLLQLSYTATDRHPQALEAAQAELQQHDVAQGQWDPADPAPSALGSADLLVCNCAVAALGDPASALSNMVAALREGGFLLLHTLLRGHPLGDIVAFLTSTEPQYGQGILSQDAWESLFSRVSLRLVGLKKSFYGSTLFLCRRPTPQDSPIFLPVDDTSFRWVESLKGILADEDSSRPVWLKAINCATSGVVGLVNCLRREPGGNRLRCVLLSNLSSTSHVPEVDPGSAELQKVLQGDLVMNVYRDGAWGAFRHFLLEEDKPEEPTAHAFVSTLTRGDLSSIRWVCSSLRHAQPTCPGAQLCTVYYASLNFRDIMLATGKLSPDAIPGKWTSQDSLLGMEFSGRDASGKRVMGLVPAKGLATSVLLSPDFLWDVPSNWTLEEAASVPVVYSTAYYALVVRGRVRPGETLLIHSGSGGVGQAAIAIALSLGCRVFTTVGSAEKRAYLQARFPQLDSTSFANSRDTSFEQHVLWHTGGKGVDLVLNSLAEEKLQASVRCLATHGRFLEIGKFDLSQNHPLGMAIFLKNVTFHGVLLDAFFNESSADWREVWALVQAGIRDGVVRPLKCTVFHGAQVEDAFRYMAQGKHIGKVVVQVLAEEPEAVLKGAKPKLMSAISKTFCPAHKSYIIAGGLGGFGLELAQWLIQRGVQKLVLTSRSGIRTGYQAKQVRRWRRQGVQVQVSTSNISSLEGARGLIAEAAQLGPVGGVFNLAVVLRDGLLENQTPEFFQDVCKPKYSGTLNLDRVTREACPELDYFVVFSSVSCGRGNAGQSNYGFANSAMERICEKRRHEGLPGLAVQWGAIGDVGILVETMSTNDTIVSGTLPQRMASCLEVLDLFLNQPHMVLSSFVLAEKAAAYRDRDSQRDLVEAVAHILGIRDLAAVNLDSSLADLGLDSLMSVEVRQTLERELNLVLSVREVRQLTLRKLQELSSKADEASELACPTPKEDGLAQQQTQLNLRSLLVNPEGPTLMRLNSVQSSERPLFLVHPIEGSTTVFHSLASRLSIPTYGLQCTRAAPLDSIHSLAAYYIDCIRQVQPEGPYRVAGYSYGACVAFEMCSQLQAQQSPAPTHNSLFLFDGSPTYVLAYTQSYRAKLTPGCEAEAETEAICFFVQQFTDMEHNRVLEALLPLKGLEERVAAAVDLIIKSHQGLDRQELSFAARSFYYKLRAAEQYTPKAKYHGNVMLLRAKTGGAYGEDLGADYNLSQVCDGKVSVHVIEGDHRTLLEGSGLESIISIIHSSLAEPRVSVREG
# Sequence of Beta Lactamase (Q932Y6 whole entry): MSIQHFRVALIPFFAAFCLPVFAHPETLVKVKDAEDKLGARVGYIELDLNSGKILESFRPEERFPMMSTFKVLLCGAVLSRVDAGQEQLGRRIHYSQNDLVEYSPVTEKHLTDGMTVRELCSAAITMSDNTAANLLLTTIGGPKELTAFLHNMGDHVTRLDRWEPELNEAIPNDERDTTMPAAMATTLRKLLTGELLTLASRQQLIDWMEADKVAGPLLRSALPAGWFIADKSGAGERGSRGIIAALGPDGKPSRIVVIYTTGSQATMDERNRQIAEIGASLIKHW
# Sequence of Paired box protein Pax-8 (Q06710 whole entry): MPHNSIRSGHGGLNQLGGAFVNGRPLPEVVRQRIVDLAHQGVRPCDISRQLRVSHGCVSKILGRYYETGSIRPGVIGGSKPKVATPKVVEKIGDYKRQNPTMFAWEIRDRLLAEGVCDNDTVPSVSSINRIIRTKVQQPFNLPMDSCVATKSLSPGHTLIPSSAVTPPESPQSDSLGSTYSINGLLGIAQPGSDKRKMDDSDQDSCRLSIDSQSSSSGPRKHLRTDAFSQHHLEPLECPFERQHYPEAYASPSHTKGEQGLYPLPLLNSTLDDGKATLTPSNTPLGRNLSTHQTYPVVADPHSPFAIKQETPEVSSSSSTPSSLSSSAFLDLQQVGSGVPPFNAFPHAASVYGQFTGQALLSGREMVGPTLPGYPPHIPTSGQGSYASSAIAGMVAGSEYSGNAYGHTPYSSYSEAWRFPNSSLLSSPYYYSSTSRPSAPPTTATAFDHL
# Sequence of ATP-binding cassette sub-family B member 6 (Q9NP58 whole entry): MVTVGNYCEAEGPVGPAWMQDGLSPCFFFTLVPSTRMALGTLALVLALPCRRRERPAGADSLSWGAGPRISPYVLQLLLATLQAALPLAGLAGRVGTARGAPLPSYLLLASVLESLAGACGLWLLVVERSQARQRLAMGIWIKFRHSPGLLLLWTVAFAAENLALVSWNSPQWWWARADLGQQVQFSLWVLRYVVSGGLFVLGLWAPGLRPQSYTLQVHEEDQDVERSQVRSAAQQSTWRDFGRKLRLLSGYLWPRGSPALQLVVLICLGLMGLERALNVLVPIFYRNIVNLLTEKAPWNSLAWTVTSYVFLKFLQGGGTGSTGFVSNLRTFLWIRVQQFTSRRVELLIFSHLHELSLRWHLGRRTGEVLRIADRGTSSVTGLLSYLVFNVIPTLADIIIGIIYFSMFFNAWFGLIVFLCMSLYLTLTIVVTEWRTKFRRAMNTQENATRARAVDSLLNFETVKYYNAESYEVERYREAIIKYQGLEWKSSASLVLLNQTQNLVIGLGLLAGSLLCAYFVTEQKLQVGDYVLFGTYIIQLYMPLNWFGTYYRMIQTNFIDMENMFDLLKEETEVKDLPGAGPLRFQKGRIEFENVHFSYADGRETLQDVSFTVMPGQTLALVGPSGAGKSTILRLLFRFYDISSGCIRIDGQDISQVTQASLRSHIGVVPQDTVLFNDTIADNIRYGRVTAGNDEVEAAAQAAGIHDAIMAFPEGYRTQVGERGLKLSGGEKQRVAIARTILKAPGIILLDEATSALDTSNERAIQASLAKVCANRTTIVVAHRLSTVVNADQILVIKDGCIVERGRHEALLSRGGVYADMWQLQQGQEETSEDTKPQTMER
# Sequence of Nucleotide-binding oligomerization domain-containing protein 2 (Q9HC29 whole entry, the tested form may be a part): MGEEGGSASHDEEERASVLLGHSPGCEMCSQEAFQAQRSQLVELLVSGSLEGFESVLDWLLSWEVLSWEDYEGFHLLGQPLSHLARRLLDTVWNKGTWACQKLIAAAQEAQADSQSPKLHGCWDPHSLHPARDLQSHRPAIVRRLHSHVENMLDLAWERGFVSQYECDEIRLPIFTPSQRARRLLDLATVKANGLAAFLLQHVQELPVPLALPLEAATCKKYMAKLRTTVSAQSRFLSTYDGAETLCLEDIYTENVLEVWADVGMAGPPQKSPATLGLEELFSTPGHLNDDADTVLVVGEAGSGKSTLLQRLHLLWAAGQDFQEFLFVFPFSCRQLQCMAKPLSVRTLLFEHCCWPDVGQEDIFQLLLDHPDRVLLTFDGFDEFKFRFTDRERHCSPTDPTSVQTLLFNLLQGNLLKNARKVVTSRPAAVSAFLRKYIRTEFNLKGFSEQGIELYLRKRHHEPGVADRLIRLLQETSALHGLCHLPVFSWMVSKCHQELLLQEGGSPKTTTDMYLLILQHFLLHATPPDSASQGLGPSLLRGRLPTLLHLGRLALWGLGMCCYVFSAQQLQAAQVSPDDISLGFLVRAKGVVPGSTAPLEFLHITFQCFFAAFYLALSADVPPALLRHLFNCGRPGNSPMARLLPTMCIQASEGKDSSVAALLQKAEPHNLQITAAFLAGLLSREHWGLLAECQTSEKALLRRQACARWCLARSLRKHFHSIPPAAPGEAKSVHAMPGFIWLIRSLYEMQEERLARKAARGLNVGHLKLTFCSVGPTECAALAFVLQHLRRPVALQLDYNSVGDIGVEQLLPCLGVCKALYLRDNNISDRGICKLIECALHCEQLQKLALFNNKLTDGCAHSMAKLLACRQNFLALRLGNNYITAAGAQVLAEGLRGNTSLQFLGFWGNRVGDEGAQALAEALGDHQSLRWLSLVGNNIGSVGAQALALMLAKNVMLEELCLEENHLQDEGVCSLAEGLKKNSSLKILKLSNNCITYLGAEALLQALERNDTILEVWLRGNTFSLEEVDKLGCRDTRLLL
structure (smiles),measurement,setting,value
Cc1cccc(CS(=O)(=O)c2ncc(Cl)c(C(=O)Nc3ccc(F)cc3)n2)c1,EC50,[1],12.4 µM (active)
same,EC50,HEK293 [2],8.42 µM (active)
same,EC50,[3],80.4 µM (active)
same,EC50,Protein RecA,2.19 µM (active)
same,AC50,Paired box protein Pax-8,9.28 µM (active)
same,AC50,[4],7.95 µM (active)
same,AC50,[5],31.4 µM (active)
same,AC50,Escherichia coli,25.5 µM (active)
same,EC50,[6],12.2 µM (active)
same,IC50,HEK293 [7],> 20 µM (inactive)
same,IC50,HEK293 [8],> 20 µM (inactive)
same,EC50,[9],> 20 µM (inactive)
same,AC50,[10],23.8 µM (active)
same,IC50,Fatty acid synthase [11],19.4 µM (active)
same,AC50,[12],14.8 µM (active)
same,AC50,[13],8.4 µM (active)
same,IC50,HEK293 [14],10.8 µM (inactive)
same,AC50,[15],1.73 µM (active)
same,AC50,[16],10.5 µM (active)
same,AC50,[17],6.54 µM (active)
same,EC50,[18],22 µM (active)
same,AC50,[19],3.25 µM (active)
same,AC50,[20],10.5 µM (active)
same,IC50,Fatty acid synthase [21],9.64 µM (active)
same,AC50,[22],4.11 µM (active)
same,AC50,[23],0.55 µM (active)
same,IC50,CHO,2.72 µM (active)
same,IC50,Beta Lactamase,9.48 µM (active)
same,AC50,[24],7.88 µM (active)
same,AC50,[25],9.96 µM (active)
same,AC50,[26],29.2 µM (active)
same,AC50,[27],12.7 µM (active)

# From ChEMBL document CHEMBL1201862, “PubChem BioAssay data set” (2004)
